Results reported in patent US8697641B2, “4-amino-4-oxobutanoyl peptide cyclic analogues, inhibitors of viral replication” (Achillion Pharmaceuticals, Inc., priority 2008, dated 2014).

Each molecule was assayed on Hepatitis C replicon (assay: HCV replicon assay (NPT ELISA readout) in Huh-7 replicon-containing cells). Conditions: Hepatitis C virus, 72 h; HCV replicon in Huh-7 cells, three days incubation.
Format: cell-based, Hepatitis C virus
Method: Compounds claimed herein are tested for the ability to inhibit viral replication of the Hepatitis C replicon in cultured cells in which the HCV replicon construct has been incorporated. The HCV replicon system was described by Bartenschlager, et. al (Science, 285, pp. 110-113 (1999)). The replicon system is predictive of in vivo anti-HCV activity; compounds that are active in humans uniformly evidence activity in the replicon assay.
In this assay HCV replicon containing cells are treated with different concentrations of the test compound to ascertain the ability of the test compound to suppress replication of the HCV replicon. As a positive control, HCV replicon-containing cells are treated with different concentrations of interferon alpha, a known inhibitor of HCV replication. The replicon assay system includes Neomycin Phosphotransferase (NPT) as a component of the replicon itself in order to detect the transcription of replicon gene products in the host cell. Cells in which the HCV replicon is actively replicating have high levels of NPT; the level of NPT is proportional to HCV replication. […] The NPT level of each sample is measured using a captured ELISA.
A protocol for testing compounds for the ability to inhibit viral replication of the Hepatitis C replicon cultured cells in which the replicon construct has been incorporated, follows.
The HCV replicon contains, 5′-3′, the HCV-IRES, the neomycin phosphotransferase (neo) gene, the IRES of encephalomyocarditis virus, which directs translation of HCV sequences NS3 to NS5B, and the 3′-NTR. The sequence of the HCV replicon has been deposited in GenBank (Accession no. AJ242652).
The replicon is transfected into Huh-7 cells using standard methods such as electroporation.
The equipment and materials include, but are not limited to, Huh-7 HCV replicon-containing cells, maintenance media (DMEM (Dulbecco's modified Eagle media) supplemented with 10% FBS, L-glutamine, non-essential amino acids, penicillin (100 units/ml), streptomycin (100 micrograms/ml), and 500 micrograms/ml of Geneticin (G418), screening media (DMEM supplemented with 10% FBS, L-glutamine, non-essential amino acids, penicillin (100 units/ml) and streptomycin (100 micrograms/ml)), 96 well tissue culture plates (flat bottom), 96 well plates (U bottom for drug dilution), Interferon alpha for positive control, fixation reagent (such as methanol:acetone), primary antibody (rabbit anti-NPTII), secondary antibody: Eu-N1 l, and enhancement solution.
The cells are then seeded onto 96-well plates at a density of 6000-7500 cells/100 microliters/well (6-7.5×10^5 cells/10 ml/plate). The plates are then incubated at 37° C. in a 5% CO2 incubator.
HCV replicon-containing cells are rinsed with once PBS once; 2 mls of trypsin are then added. Cells are incubated at 37° C. in a 5% CO2 incubator for 3-5 minutes. 10 mls of complete medium is added to stop the reaction. Cells are blown gently, put into a 15 ml tube, and spun at 1200 rpm for four minutes. The trypsin/medium solution is removed and 5 mls of medium (500 ml DMEM (high glucose)) from BRL catalog #12430-054; 50 mls 10% FBS, 5% Geneticin G418 (50 mg/ml, BRL catalog #10131-035), 5 ml MEM non-essential amino acids (100×BRL #11140-050) and 5 ml pen-strep (BRL #15140-148) is added. The cells and media are mixed carefully
Cells are plated with screening medium (500 ml DMEM (BRL #21063-029), 50 ml FBS (BRL #10082-147) and 5 ml MEM non-essential amino acid (BRL #11140-050) at 6000-7500 fcells/100 μl/well of 96 well plate (6-7.5×10^5 cells/10 ml/plate). Plates are placed into 37° C. 5% CO2 incubator overnight.
The following morning, drugs (test compounds or interferon alpha) are diluted in 96 well U bottom plates with media or DMSO/media, depending on the final concentration chosen for screening. Generally for 6 concentrations of each test compounds ranging from 10 micromolar to 0.03 micromolar are applied. […]
`O=C1NC2(C(=O)NS(=O)(=O)C3CC3)CC2/C=C\CCCCC[C@H](CC(=O)N2CCCCC2)C(=O)N2C[C@H](OC(=O)N3Cc4cccc(F)c4C3)C[C@@H]12` (stereo partly drawn) [Compound 50, (2R,6R,16aS,Z)-14a-(cyclopropylsulfonyl-carbamoyl)-5,16-dioxo-6-(2-oxo-2-(piperidin-1-yl)ethyl)-1,2,3,5,6,7,8,9,10,11, 13a,14,14a,15,16,16a-hexadecahydrocyclopropa [e]pyrrolo[1,2-a][1,4] diazacyclopentadecin-2-yl 4-fluoroisoindoline-2-carboxylate] was tested, and the EC50 was under 1000 nM. With `COc1ccc2c(O[C@@H]3C[C@H]4C(=O)N[C@]5(C(=O)NS(=O)(=O)C6CC6)C[C@H]5/C=C\CCCCC[C@H](CC(=O)N5CCCC(F)(F)C5)C(=O)N4C3)cc(-c3ccccn3)nc2c1Cl` [Compound 91, (2R,6R,14aR,16aS,Z)-2-(8-chloro-7-methoxy-2-(pyridin-2-yl)quinolin-4-yloxy)-N-(cyclopropylsulfonyl)-6-(2-(3,3-difluoropiperidin-1-yl)-2-oxoethyl)-5,16-dioxo-1,2,3,5,6,7,8,9,10,11, 13a,14,14a,15,16,16a-hexadecahydrocyclopropa [e]pyrrolo[1,2-a][1,4] diazacyclopentadecine-14a-carboxamide] the EC50 was under 1000 nM. `COc1ccc2c(O[C@@H]3C[C@H]4C(=O)N[C@]5(C(=O)NS(=O)(=O)C6CC6)C[C@H]5/C=C\CCCCC[C@H](CC(=O)N5CC(C)CC(C)C5)C(=O)N4C3)cc(-c3ccccc3)nc2c1` (stereo partly drawn) [Compound 68, (2R,6R,13aS, 14aR,16aS,Z)-N-(cyclopropylsulfonyl)-6-(2-(3,5-dimethylpiperidin-1-yl)-2-oxoethyl)-2-(7-methoxy-2-phenylquinolin-4-yloxy)-5,16-dioxo-1,2,3,5,6,7,8,9,10,11, 13a,14,14a,15,16,16a-hexadecahydrocyclopropa [e]pyrrolo[1,2-a][1,4] diazacyclopentadecine-14a-carboxamide] gave an EC50 of under 1000 nM. `COc1ccc2c(O[C@@H]3C[C@H]4C(=O)N[C@]5(C(=O)NS(=O)(=O)C6CC6)C[C@H]5/C=C\CCCCC[C@H](CC(=O)N5CCC(C(F)(F)F)CC5)C(=O)N4C3)cc(-c3ccccn3)nc2c1C` [Compound 117, (2R,6R,14aR,16aS,Z)-N-(cyclopropylsulfonyl)-2-(7-methoxy-8-methyl-2-(pyridin-2-yl)quinolin-4-yloxy)-5, 16-dioxo-6-(2-oxo-2-(4-(trifluoromethyl)piperidin-1-yl)ethyl)-1,2,3,5,6,7,8,9,10,11, 13a,14,14a,15,16,16a-hexadecahydrocyclopropa [e]pyrrolo[1,2-a][1,4] diazacyclopentadecine-14a-carboxamide] showed an EC50 of over 10000 nM. `COc1ccc2c(O[C@@H]3C[C@H]4C(=O)N[C@]5(C(=O)NS(=O)(=O)C6CC6)C[C@H]5/C=C\CCCCC[C@H](CC(=O)N[C@@H]5CCNC5)C(=O)N4C3)cc(-c3ccccc3)nc2c1` [Compound 109, (2R,6R,14aR,16aS,Z)-N-(cyclopropylsulfonyl)-2-(7-methoxy-2-phenylquinolin-4-yloxy)-5,16-dioxo-6-(2-oxo-2-((R)-pyrrolidin-3-ylamino)ethyl)-1,2,3,5,6,7,8,9,10,11, 13a,14,14a,15,16,16a-hexadecahydrocyclopropa [e]pyrrolo[1,2-a][1,4] diazacyclopentadecine-14a-carboxamide] showed an EC50 of under 1000 nM. `COc1ccc2c(O[C@@H]3C[C@H]4C(=O)N[C@]5(C(=O)NS(=O)(=O)C6CC6)C[C@H]5/C=C\CCCCC[C@H](CC(=O)N5CCCC5C(F)(F)F)C(=O)N4C3)cc(-c3ccccn3)nc2c1Cl` (stereo partly drawn) [Compound 95, (2R,6R,14aR,16aS,Z)-2-(8-chloro-7-methoxy-2-(pyridin-2-yl)quinolin-4-yloxy)-N-(cyclopropylsulfonyl)-5,16-dioxo-6-(2-oxo-2-(2-(trifluoromethyl)pyrrolidin-1-yl)ethyl)-1,2,3,5,6,7,8,9,10,11, 13a,14,14a,15,16,16a-hexadecahydrocyclopropa [e]pyrrolo[1,2-a][1,4] diazacyclopentadecine-14a-carboxamide] showed an EC50 of under 1000 nM.
